pEC50: −log10 of the molar value.
Experiment: Effect on ZAP70 phosphorylation in human Jurkat cells pre-incubated for 30 mins followed by anti-CD3/CD28 stimulation measured after 10 mins

Row | SMILES | pEC50
1 | CCc1cc(NC(=O)c2nn(C3CCN(C(=O)NC(C)(C)C)CC3)c3ccccc23)ccc1-c1cc(C)c(=O)[nH]n1 | 5.57
2 | CC(C)(C)NC(=O)N1CC(Cn2nc(C(=O)Nc3ccc(-c4ccc(=O)[nH]n4)c(Cl)c3)c3ccccc32)C1 | 5.10
3 | COc1ccc2c(C(=O)Nc3ccc(NC(=O)c4nn(C)c5ccccc45)cc3C)cnn2c1 | < 4.70
4 | CC(C)(C)NC(=O)N1CCC(n2nc(C(=O)Nc3ccc(-c4ccc(=O)[nH]n4)c(Cl)c3)c3ccccc32)CC1 | 5.24
5 | CCc1cc(NC(=O)c2nn(C3CCN(C(=O)NC(C)(C)C)CC3)c3ccccc23)ccc1-c1n[nH]c(=O)cc1C | 5.70
6 | CC(C)(C)NC(=O)N1CCC(n2nc(C(=O)Nc3ccc(NC(=O)c4cnn5ccccc45)cc3)c3ccccc32)CC1 | 5.85
7 | CCc1cc(NC(=O)c2nn(C3CCN(C(=O)NC(C)(C)C)CC3)c3ccccc23)ccc1-c1n[nH]c(=O)c(C)c1C | 6.38
8 | Cc1cc(=O)[nH]nc1-c1ccc(NC(=O)c2nn(C3CCN(C(=O)NC(C)(C)C)CC3)c3ccccc23)cc1Cl | 5.39

Now those with a higher pEC50, led by results:

Row | pEC50 | SMILES
9 | 7.38 | Cc1cc(NC(=O)c2nn(C3CCN(C(=O)NC(C)(C)C)CC3)c3ccccc23)ccc1NC(=O)c1cnn2ccccc12
10 | 7.55 | COc1ccc2c(C(=O)Nc3ccc(NC(=O)c4nn(C5CCN(C(=O)NC(C)(C)C)CC5)c5ccccc45)cc3C)cnn2c1
11 | 7.06 | Cc1cc(NC(=O)c2nn(C3CCN(C(=O)CC(C)(C)C#N)CC3)c3ccccc23)ccc1NC(=O)c1cnn2ccccc12
12 | 7.31 | CC(C)(C)NC(=O)N1CCC(n2nc(C(=O)Nc3ccc(NC(=O)c4cnn5ccccc45)c(Cl)c3)c3ccccc32)CC1
13 | 7.39 | COc1ccc2c(C(=O)Nc3ccc(NC(=O)c4nn(C5CCN(C(=O)CC(C)(C)C#N)CC5)c5ccc(F)cc45)cc3Cl)cnn2c1
14 | 7.25 | COc1ccc2c(C(=O)Nc3ccc(NC(=O)c4nn(C5CCN(C(=O)NC(C)(C)C)CC5)c5ccc(F)cc45)cc3Cl)cnn2c1
